According to patent US20230009626A1 (ICHNOS SCIENCES S.A., priority 2018, published 2023):

Molecular target: HPK1 (MAP4K1) (Homo sapiens, UniProt Q92918)
Assay: FRET Assay for HPK1 (MAP4K1): one step binding assay, displacement of labeled tracer
Settings: for inhibition at 1 µM: 1 μM compound; for inhibition at 1 µM / inhibition at 10 µM: FRET ratio 665/620, percent of control; for IC50: dose response curve, nonlinear regression; for inhibition at 10 µM: 10 μM compound
Source text: FRET Assay for HPK1 (MAP4K1):
This is a one step binding assay based on the binding and displacement of the labeled tracer, where compound addition is followed by addition of the anti-GST tagged europium (Eu) as the donor and Alexa Fluor-labeled tracer as the acceptor. Simultaneous binding of both the tracer and GST-antibody to the kinase domain of HPK1 results in a high degree of FRET (fluorescence resonance energy transfer) from the anti-GST tagged europium (Eu) fluorophore to the Alexa Fluor® 647 fluorophore on the kinase tracer and this signal is reduced in presence of the inhibitor that can be measured.
Test compounds or reference compounds such as Sunitinib (Sigma) were dissolved in dimethylsulfoxide (DMSO) to prepare 10.0 mM stock solutions and diluted to the desired concentration. The final concentration of DMSO in the reaction was 3% (v/v). The assay mixture was prepared by mixing 4 nM of the Eu-Anti-GST Antibody and 10 nM MAP4K-1 enzyme in the Kinase buffer containing 50mM HEPES (pH 7.5), 10 mM MgCl2, 1 mM EGTA, 0.01% Brij-35 with or without the desired concentration of the compound. The reaction was incubated on ice for 15 mins. The pre-incubation step was followed by addition of the 20 nM Kinase Tracer 222 into the reaction mixture. After shaking for 5 min the reaction was further incubated for 1 hour at room temperature and this was kept at 4° C. and read on ARTEMIS reader as per the kit instructions (Thermo). […] The activity was calculated as percent of control reaction. IC50 values were calculated from dose response curve by nonlinear regression analysis using GraphPad Prism software.
Percentage inhibition at concentrations of 1.0 μM and 10.0 μM are given in the table along with IC50 (nM) details for selected examples.

HPK1 (MAP4K1), sequence (Q92918 whole entry): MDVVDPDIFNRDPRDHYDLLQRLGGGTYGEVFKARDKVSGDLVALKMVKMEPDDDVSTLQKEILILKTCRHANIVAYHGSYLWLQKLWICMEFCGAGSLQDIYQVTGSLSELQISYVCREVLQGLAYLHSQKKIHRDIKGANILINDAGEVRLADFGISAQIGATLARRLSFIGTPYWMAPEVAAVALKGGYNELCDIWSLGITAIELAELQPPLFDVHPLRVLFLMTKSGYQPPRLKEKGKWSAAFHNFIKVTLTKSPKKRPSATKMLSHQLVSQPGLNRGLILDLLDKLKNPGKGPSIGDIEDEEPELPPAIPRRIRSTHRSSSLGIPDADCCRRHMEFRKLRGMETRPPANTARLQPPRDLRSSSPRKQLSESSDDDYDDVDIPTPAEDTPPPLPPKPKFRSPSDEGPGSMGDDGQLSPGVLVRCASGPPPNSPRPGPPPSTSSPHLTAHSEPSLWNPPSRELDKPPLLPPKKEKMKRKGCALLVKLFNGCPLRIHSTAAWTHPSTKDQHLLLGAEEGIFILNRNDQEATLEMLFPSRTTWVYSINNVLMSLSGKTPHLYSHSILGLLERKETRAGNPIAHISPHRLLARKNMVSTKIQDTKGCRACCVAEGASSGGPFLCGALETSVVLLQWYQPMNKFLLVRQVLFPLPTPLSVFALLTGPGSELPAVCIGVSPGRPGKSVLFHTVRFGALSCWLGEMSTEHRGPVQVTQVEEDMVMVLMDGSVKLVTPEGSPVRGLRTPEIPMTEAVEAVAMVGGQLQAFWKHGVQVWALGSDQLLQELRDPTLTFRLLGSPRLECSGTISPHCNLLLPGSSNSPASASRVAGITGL

SMILES	inhibition at 1 µM [%]	IC50 [nM]	inhibition at 10 µM [%]
C/C(Nc1cc2n(n1)CCOC2)=C1/C(=O)Nc2cnc(-c3cc(F)ccc3C)cc21 [Example 218, (Z)-3-(1-((6,7-Dihydro-4H-pyrazolo[5,1-c][1,4]oxazin-2-yl)amino)ethylidene)-5-(5-fluoro-2-methylphenyl)-1H-pyrrolo[2,3-c]pyridin-2(3H)-one]	77.7	< 50	
C/C(Nc1cnn(C(C)(C)C#N)c1)=C1/C(=O)Nc2cnc(-c3cnccc3C)cc21 [Example 53, (Z)-2-Methyl-2-(4-((1-(5-(4-methylpyridin-3-yl)-2-oxo-1H-pyrrolo[2,3-c]pyridin-3(2H)-ylidene)ethyl)amino)-1H-pyrazol-1-yl)propanenitrile]	87.1	< 50	85.4
C/C(Nc1ccn(C)n1)=C1/C(=O)Nc2cnc(-c3cncc(N)c3C)cc21 [Example 140, (Z)-5-(5-Amino-4-methylpyridin-3-yl)-3-(1-((1-methyl-1H-pyrazol-3-yl)amino)ethylidene)-1H-pyrrolo[2,3-c]pyridin-2(3H)-one]	79.8	< 50	91.3
C/C(Nc1cnn([C@@H](C)C#N)c1)=C1/C(=O)Nc2cnc(-c3cnccc3C)cc21 [Example 167, (S,Z)-2-(4-((1-(5-(4-Methylpyridin-3-yl)-2-oxo-1H-pyrrolo[2,3-c]pyridin-3(2H)-ylidene)ethyl)amino)-1H-pyrazol-1-yl)propanenitrile]	69.2	< 50	67.5
C/C(Nc1cc(C)n(CC(C)C)n1)=C1/C(=O)Nc2cnc(-c3c(C)cccc3F)cc21 [Example 202, (Z)-5-(2-Fluoro-6-methylphenyl)-3-(1-((1-isobutyl-5-methyl-1H-pyrazol-3-yl)amino)ethylidene)-1H-pyrrolo[2,3-c]pyridin-2(3H)-one]	75.7	< 50	61
C/C(Nc1cnn(CC2CC2)c1)=C1/C(=O)Nc2cnc(-c3cnccc3C)cc21 [Example 67, (Z)-3-(1-((1-(Cyclopropylmethyl)-1H-pyrazol-4-yl)amino)ethylidene)-5-(4-methylpyridin-3-yl)-1H-pyrrolo[2,3-c]pyridin-2(3H)-one]	74	< 50	71.4
C/C(Nc1cnn(C(C)C)c1)=C1/C(=O)Nc2cnc(-c3cnccc3C)cc21 [Example 89, (Z)-3-(1-((1-Isopropyl-1H-pyrazol-4-yl)amino)ethylidene)-5-(4-methylpyridin-3-yl)-1H-pyrrolo[2,3-c]pyridin-2(3H)-one]	77.3	< 50	76
C/C(Nc1cnn(CC[C@@H](C)O)c1)=C1/C(=O)Nc2cnc(-c3cnccc3C)cc21 [Example 165, (R,Z)-3-(1-((1-(3-Hydroxybutyl)-1H-pyrazol-4-yl)amino)ethylidene)-5-(4-methylpyridin-3-yl)-1H-pyrrolo[2,3-c]pyridin-2(3H)-one]	79.3	< 50	71.8
COCCn1cc(N/C(C)=C2\C(=O)Nc3cnc(-c4cnccc4C)cc32)cn1 [Example 60, (Z)-3-(1-((1-(2-Methoxyethyl)-1H-pyrazol-4-yl)amino)ethylidene)-5-(4-methylpyridin-3-yl)-1H-pyrrolo[2,3-c]pyridin-2(3H)-one]	74	< 50	72.7
C/C(Nc1cc(C)n(C(C)(C)C#N)n1)=C1/C(=O)Nc2cnc(-c3c(C)cccc3F)cc21 [Example 207, (Z)-2-(3-((1-(5-(2-Fluoro-6-methylphenyl)-2-oxo-1H-pyrrolo[2,3-c]pyridin-3(2H)-ylidene)ethyl)amino)-5-methyl-1H-pyrazol-1-yl)-2-methylpropanenitrile]	73.8	< 50	
C/C(Nc1cc(C)n(CC(C)(C)O)n1)=C1/C(=O)Nc2cnc(-c3cnccc3C)cc21 [Example 181, (Z)-3-(1-((1-(2-Hydroxy-2-methylpropyl)-5-methyl-1H-pyrazol-3-yl)amino)ethylidene)-5-(4-methylpyridin-3-yl)-1H-pyrrolo[2,3-c]pyridin-2(3H)-one]	76.8	< 50	80.8
C/C(Nc1cc(C)n(C)n1)=C1/C(=O)Nc2ccc(-c3cnccc3C)cc21 [Example 194, (Z)-3-(1-((1,5-Dimethyl-1H-pyrazol-3-yl)amino)ethylidene)-5-(4-methylpyridin-3-yl)indolin-2-one]	68.6	< 50	66.6
C/C(Nc1cc2n(n1)CC(=O)N(C)C2)=C1/C(=O)Nc2cnc(-c3cnccc3C)cc21 [Example 126, (Z)-5-Methyl-2-((1-(5-(4-methylpyridin-3-yl)-2-oxo-1H-pyrrolo[2,3-c]pyridin-3(2H)-ylidene)ethyl)amino)-4,5-dihydropyrazolo[1,5-a]pyrazin-6(7H)-one]	82.4	< 50	
C/C(Nc1cnn([C@H](C)C#N)c1)=C1/C(=O)Nc2cnc(-c3cnccc3C)cc21 [Example 160, (R,Z)-2-(4-((1-(5-(4-Methylpyridin-3-yl)-2-oxo-1H-pyrrolo[2,3-c]pyridin-3(2H)-ylidene)ethyl)amino)-1H-pyrazol-1-yl)propanenitrile]	85	< 50	78.4
COc1cccc(F)c1-c1ccc2c(c1)/C(=C(/Nc1cnn(C)c1)c1ccccc1)C(=O)N2 [Example 15, (Z)-5-(2-Fluoro-6-methoxyphenyl)-3-(((1-methyl-1H-pyrazol-4-yl)amino)(phenyl)methylene)indolin-2-one]	85.2	< 50	87
C/C(Nc1cnn(CC(C)(C)O)c1)=C1/C(=O)Nc2cnc(-c3cnccc3C)cc21 [Example 78, (Z)-3-(1-((1-(2-Hydroxy-2-methylpropyl)-1H-pyrazol-4-yl)amino)ethylidene)-5-(4-methylpyridin-3-yl)-1H-pyrrolo[2,3-c]pyridin-2(3H)-one]	84.2	< 50	83.1

The remaining lines, values ahead:

inhibition at 1 µM [%]	IC50 [nM]	inhibition at 10 µM [%]	SMILES
74.7	100 to 500	91.1	C/C(Nc1cnn(C)c1)=C1/C(=O)Nc2cnc(-c3cccnc3C)cc21 [Example 158, (Z)-3-(1-((1-Methyl-1H-pyrazol-4-yl)amino)ethylidene)-5-(2-methylpyridin-3-yl)-1H-pyrrolo[2,3-c]pyridin-2(3H)-one]
84.4	50 to 100	91.2	CCOc1cccc(F)c1-c1cc2c(cn1)NC(=O)/C2=C(/C)Nc1ccc(N2CCOCC2)nc1 [Example 37, (Z)-5-(2-Ethoxy-6-fluorophenyl)-3-(1-((6-morpholinopyridin-3-yl)amino)ethylidene)-1H-pyrrolo[2,3-c]pyridin-2(3H)-one]
73.3	50 to 100		COc1cccc(F)c1-c1ccc2c(c1)/C(=C(\C)Nc1ccc(N3CCOCC3)cc1)C(=O)N2 [Example 13, (Z)-5-(2-Fluoro-6-methoxyphenyl)-3-(1-((4-morpholinophenyl)amino)ethylidene)indolin-2-one]
84.9	< 50	84.4	CC/C(Nc1ccc(N2CCN(C)CC2)cc1)=C1/C(=O)Nc2ccc(-c3c(F)cccc3OC)cc21 [Example 9, (Z)-5-(2-Fluoro-6-methoxyphenyl)-3-(1-((4-(4-methylpiperazin-1-yl)phenyl)amino)propylidene)indolin-2-one]
78.9	< 50	85.7	C/C(Nc1ccn(C)n1)=C1/C(=O)Nc2cnc(-c3c(C)cccc3F)cc21 [Example 121, (Z)-5-(2-Fluoro-6-methylphenyl)-3-(1-((1-methyl-1H-pyrazol-3-yl)amino)ethylidene)-1H-pyrrolo[2,3-c]pyridin-2(3H)-one]
69.5		69.9	CC(=O)N1CCN(c2ccc(N/C(C)=C3\C(=O)Nc4cnc(-c5cnccc5C)cc43)cn2)CC1 [Example 70, (Z)-3-(1-((6-(4-Acetylpiperazin-1-yl)pyridin-3-yl)amino)ethylidene)-5-(4-methylpyridin-3-yl)-1H-pyrrolo[2,3-c]pyridin-2(3H)-one]
83.1	< 50	80	COc1cccc(F)c1-c1cc2c(cc1C)NC(=O)/C2=C(/C)Nc1cnn(C)c1 [Example 21, (Z)-5-(2-Fluoro-6-methoxyphenyl)-6-methyl-3-(1-((1-methyl-1H-pyrazol-4-yl)amino)ethylidene)indolin-2-one]
77.7	< 50	84.2	COc1cccc(F)c1-c1cc2c(cn1)NC(=O)/C2=C(/C)Nc1ccc(N2CCNCC2)nc1 [Example 125, (Z)-5-(2-Fluoro-6-methoxyphenyl)-3-(1-((6-(piperazin-1-yl)pyridin-3-yl)amino)ethylidene)-1H-pyrrolo[2,3-c]pyridin-2(3H)-one]
